For assay [1], the system named is U-87 MG. Description: Cytotoxicity against human U-87MG cells assessed as cell growth inhibition measured after 48 hrs by MTS colorimetric assay. The assay is classed as functional, cell-based, U-87MG ATCC. Background: Tetrazolium assays rely on reduction of a dye to a coloured formazan, in cell work by metabolically active cells.
Assay [2] addresses T1, DNA topoisomerase 1 (Homo sapiens) (UniProt P11387).
T1 sequence (whole entry): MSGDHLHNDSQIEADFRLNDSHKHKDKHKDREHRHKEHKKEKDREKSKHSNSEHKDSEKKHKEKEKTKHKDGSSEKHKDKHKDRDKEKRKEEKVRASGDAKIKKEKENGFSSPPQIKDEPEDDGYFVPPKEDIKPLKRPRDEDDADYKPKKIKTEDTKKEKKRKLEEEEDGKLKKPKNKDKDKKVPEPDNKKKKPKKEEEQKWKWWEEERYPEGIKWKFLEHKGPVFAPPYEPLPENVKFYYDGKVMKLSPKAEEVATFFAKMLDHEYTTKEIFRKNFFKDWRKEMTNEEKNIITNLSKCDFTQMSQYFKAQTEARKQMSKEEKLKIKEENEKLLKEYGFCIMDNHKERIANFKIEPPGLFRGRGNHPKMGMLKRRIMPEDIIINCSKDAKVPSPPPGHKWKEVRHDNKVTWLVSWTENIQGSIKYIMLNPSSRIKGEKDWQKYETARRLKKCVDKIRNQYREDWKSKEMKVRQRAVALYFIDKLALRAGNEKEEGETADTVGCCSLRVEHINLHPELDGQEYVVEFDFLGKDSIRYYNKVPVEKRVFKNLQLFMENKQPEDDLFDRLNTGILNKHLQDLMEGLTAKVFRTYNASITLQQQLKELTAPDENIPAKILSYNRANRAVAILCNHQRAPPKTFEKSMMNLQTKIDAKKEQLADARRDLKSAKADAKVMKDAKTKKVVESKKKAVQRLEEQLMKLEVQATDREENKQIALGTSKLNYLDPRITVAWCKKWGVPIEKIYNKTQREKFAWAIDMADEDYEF
Description: Inhibition of human recombinant topoisomerase I assessed as DNA cleavage using supercoiled pHOT1 plasmid DNA as substrate at 100 uM measured after 1 hr by agarose gel electrophoresis analysis.

Assay [3] relates to KBM5. The assay is described as follows: Potentiation of ponatinib-induced mitochondrial membrane depolarization in human KBM5 cells expressing T315I mutant at 5 nM measured upto 48 hrs by JC-1 staining based flow cytometry analysis. The assay is classed as functional, cell-based. Particulars: time hrs <=48.
The test system of assay [4] is KU812 cell line. Description: Cytotoxicity against Bcr-Abl expressing human KU812 cells assessed as cell growth inhibition measured after 48 hrs by MTT assay. The assay is classed as functional, cell-based. Particulars: KU812, 48 h.
The subject of assay [5] is MCF7. The assay is described as follows: Cytotoxicity against human MCF7 cells assessed as cell growth inhibition measured after 96 hrs. Particulars: MCF7, 96 h. In kind it is functional, cell-based.
Assay [6] has as its target T2, Tubulin (Homo sapiens) (UniProt P68371+Q9H4B7+P0DPH7+P68366+Q13509+Q71U36+P04350+Q3ZCM7+P07437+P68363+Q9BQE3+Q6PEY2+Q13885+Q9BVA1+Q9BUF5). The assay is described as follows: Inhibition of [3H]Colchicine binding to tubulin (unknown origin) at 5 uM measured after 10 mins by DEAE-Cellulose filter method relative to control. In kind it is protein-complex assay.
In assay [7] the test system is U-87 MG. Description: Antitumor activity against human U-87MG cells xenografted in BALB/c nu/nu mouse assessed as reduction in tumor volume at 25 mg/kg, ip administered every 2 days for 35 days. In kind it is functional, organism-based. The following applies: U-87MG ATCC, time 35.0 day. Background: A xenograft is tissue or cells of one species grown in another, often human tumour cells in immunodeficient mice.

The target of assay [8] is Bcr/Abl fusion protein (Homo sapiens) (UniProt P00519+P11274). The assay is described as follows: Inhibition of Bcr-Abl tyrosine phosphorylation in human KBM5 cells expressing T315I mutant at 1 to 10 nM in the presence of ponatinib measured after 24 hrs by western blot analysis. In kind it is cell-based. The following applies: dose 1-10 nM. Background: Immunoblotting shows a protein as a band on a membrane.
Bcr/Abl fusion protein (Homo sapiens), sequence (P00519 whole entry, looked up, the tested form may be a part): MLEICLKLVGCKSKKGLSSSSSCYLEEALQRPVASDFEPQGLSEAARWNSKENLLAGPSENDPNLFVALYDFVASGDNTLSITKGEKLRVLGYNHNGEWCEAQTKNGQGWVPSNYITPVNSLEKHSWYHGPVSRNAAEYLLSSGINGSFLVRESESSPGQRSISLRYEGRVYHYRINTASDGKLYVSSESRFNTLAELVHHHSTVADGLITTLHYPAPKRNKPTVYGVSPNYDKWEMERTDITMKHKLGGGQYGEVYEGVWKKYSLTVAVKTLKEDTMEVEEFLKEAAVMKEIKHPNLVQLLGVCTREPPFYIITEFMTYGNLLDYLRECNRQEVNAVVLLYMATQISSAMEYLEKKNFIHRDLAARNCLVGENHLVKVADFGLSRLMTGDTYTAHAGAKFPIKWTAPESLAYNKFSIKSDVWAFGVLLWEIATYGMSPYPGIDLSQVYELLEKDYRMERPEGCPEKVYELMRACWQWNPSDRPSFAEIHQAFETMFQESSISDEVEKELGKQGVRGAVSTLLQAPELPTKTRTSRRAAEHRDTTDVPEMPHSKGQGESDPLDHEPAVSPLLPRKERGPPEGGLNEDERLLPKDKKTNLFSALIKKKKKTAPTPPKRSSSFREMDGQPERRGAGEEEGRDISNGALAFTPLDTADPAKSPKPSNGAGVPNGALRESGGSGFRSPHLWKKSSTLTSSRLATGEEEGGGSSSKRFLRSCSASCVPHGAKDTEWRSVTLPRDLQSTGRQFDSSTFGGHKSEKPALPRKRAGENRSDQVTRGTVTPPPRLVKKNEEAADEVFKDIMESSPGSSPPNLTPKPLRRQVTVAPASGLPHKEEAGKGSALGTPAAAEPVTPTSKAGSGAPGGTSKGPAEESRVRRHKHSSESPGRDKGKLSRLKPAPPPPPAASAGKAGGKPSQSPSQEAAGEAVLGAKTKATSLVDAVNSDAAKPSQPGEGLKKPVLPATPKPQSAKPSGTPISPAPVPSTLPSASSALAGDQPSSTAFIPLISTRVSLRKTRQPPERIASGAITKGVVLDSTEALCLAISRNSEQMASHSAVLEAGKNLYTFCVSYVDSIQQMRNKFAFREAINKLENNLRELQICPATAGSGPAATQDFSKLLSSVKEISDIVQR
Bcr/Abl fusion protein (Homo sapiens), sequence (P11274 whole entry, looked up, the tested form may be a part): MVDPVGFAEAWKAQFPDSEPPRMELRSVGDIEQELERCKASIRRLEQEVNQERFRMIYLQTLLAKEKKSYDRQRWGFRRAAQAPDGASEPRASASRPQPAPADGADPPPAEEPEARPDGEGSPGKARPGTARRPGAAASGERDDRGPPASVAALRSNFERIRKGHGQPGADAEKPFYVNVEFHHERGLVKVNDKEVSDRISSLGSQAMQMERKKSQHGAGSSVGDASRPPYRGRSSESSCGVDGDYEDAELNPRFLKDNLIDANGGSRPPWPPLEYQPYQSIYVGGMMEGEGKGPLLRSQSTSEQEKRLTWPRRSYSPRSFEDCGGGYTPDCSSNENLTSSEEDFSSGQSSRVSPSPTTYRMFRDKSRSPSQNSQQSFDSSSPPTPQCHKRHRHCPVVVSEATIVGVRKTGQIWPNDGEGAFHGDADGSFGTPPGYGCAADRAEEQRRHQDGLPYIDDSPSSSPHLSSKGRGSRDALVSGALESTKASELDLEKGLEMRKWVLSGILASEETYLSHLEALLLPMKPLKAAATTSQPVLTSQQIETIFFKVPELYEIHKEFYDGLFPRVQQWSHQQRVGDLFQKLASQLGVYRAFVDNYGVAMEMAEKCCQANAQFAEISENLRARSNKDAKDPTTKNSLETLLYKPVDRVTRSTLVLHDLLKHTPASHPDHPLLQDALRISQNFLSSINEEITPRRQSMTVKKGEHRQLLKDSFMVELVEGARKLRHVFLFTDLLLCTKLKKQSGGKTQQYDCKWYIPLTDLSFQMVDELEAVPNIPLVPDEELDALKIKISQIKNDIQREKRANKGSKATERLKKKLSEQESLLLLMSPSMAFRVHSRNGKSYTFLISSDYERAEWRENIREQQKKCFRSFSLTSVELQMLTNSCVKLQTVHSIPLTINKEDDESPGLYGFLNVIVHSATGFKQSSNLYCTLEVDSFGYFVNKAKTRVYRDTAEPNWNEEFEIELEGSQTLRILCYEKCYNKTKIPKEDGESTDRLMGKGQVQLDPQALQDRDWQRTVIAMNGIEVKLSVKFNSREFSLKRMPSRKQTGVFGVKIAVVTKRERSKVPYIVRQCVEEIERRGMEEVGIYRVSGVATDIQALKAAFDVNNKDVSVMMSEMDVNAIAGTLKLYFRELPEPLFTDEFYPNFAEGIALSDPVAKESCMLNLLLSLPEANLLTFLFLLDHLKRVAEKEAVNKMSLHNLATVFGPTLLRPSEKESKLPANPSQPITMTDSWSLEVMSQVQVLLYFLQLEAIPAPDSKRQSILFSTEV

The subject of assay [9] is KBM5. Description: Induction of apoptosis in human KBM5 cells expressing T315I mutant assessed as decrease in […] expression at 1 to 10 uM measured after 24 hrs by Western blot analysis. In kind it is functional, cell-based. Particulars: dose 1-10 µM.
In assay [10] the test system is U-87 MG. The assay is described as follows: Antitumor activity against human U-87MG cells xenografted in BALB/c nu/nu mouse assessed as increase in activated caspase-3 expression at 25 mg/kg, ip administered every 2 days for 35 days by DAPI staining based immunofluorescence analysis. The following applies: U-87MG ATCC, time 35.0 day. In kind it is functional, organism-based.

Assay [11] addresses T2, Tubulin (Homo sapiens). Description: Inhibition of [3H]Colchicine binding to tubulin (unknown origin) at 1 uM measured after 10 mins by DEAE-Cellulose filter method relative to control. In kind it is protein-complex assay.

The source made the active and inactive calls. The calls are words filed in the database; no cut-off is given here.

As for `COc1cc(C(=O)c2cn(-c3ccc(C)cc3)cc2-c2ccsc2)cc(OC)c1OC`, the results for the IC50 in assay [1], in [4] and in [5] were 19.4 nM, 9.5 nM and 4 nM, respectively. Moreover, the inhibition result in assay [2] and in [8] was “Active” throughout. Besides, the result in [3], in assay [7], in assay [9] and in assay [10] was Active. The values for the inhibition in [6] and in [11] were 90% and 71%, respectively.

By IC50 is commonly meant the point on the concentration scale where inhibition reaches its midpoint. The term inhibition denotes how much of the control response was suppressed.

Source of the values: ChEMBL document CHEMBL4837226, “Discovery of pyrrole derivatives for the treatment of glioblastoma and chronic myeloid leukemia” (Eur J Med Chem, 2021).
